Earlier results on four compounds are cited in US20020179884A1, “Disinfecting and deodorizing agent” (priority 2000, published 2002).

For this series the following is noted: 25° C.

For the compound `O=P([O-])([O-])OP(=O)([O-])O.[Na+].[Na+].[Na+]` [trisodium pyrophosphate], the pKa25 is given as 8.95.

Turning to `O=BOB(O)OB(O)OB=O` [sodium tetraborate], the pKa25 is recorded as 9.24.

Turning to `O=P(O)(O)OP(=O)(O)OP(=O)(O)O` [sodium tripolyphosphate], the pKa25 is 9.70.

With `O=C([O-])O.[Na+]` [sodium hydrogencarbonate], the pKa25 was 10.33.
